Values quoted from earlier work, collected in patent US8551975B1, “Hyaluronic acid in soft gel form” (Soft Gel Technologies, Inc., priority 2001, dated 2013).

half-life in the epidermis (epidermis, endogenous HA): less than one day | half-life of an HA molecule (normally, endogenous HA synthesized and catabolized in tissues): 2-3 weeks
Substance: Hyaluronic Acid [HA]
